# Reference: patent EP4725941A1, “ARYLAMIDE DERIVATIVE HAVING ANTITUMOR ACTIVITY” (priority 2020, dated 2021)
# Where two headings read alike, the source gives them in different places.
# Tests used:
# BRAF = molecular target: T1, BRAF (Homo sapiens, UniProt P15056); test: BRAF-inhibiting activity, time-resolved fluorescence-fluorescence resonance energy transfer assay; assay type: biochemical; settings: read-out: BRAF IC50
# T1 construct: purchased Eurofins Genomics KK; (BRAF); Thermo Fisher Scientific Inc. (MEK1)
# Description: The BRAF-inhibiting activity of the compounds listed in Table 3 below was evaluated by the time-resolved fluorescence-fluorescence resonance energy transfer assay as described below.
# MEK1 = molecular target: T2, MEK1 (Homo sapiens, UniProt Q02750); test: MEK1-inhibiting activity, fluorescent polarization method (CRAF/MEK1/ERK2 cascade, IMAP); assay type: biochemical
# T2 construct: purchased Thermo Fisher Scientific Inc. (MEK1, CRAF); Carna Biosciences, Inc. (ERK2)
# HCT-116 = HCT-116 growth-inhibiting activity; assay type: cell-based; settings: Table 1, human cancer cells with RAS mutation
# [1] = Human liver microsome stability; assay type: in vitro ADME; settings: human liver microsomes, pH 7.4
# A549 = test: Cell proliferation-inhibiting activity (ATP in viable cells, CellTiter-Glo), A549; assay type: cell-based, human; settings: A549, 96 h; human lung cancer cells, 4 days; read-out: A549 IC50
# Calu-6 = test: Cell proliferation-inhibiting activity (ATP in viable cells, CellTiter-Glo), Calu-6; assay type: cell-based, human; settings: Calu-6, 96 h; human lung cancer cells, 4 days; read-out: Calu-6 IC50
# NCI-H2122 = test: Cell proliferation-inhibiting activity (ATP in viable cells, CellTiter-Glo), NCI-H2122; assay type: cell-based, human; settings: NCI-H2122, 96 h; human lung cancer cells, 4 days; read-out: NCI-H2122 IC50
# Colo-205 = Colo-205 growth-inhibiting activity; assay type: cell-based; settings: Table 1, human cancer cells with BRAF mutation
# T2 sequence (Q02750 whole entry): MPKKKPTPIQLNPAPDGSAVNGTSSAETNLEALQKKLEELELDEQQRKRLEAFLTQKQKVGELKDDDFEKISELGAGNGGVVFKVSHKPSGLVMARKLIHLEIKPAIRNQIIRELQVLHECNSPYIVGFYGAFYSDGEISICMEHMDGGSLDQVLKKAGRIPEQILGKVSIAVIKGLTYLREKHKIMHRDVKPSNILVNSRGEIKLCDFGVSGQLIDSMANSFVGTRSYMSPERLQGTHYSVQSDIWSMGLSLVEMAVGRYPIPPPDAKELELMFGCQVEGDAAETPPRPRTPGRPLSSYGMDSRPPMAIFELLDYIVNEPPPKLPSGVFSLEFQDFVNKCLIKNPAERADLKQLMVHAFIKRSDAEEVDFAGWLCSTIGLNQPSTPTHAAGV
# T1 sequence (P15056 417-766 limits assumed): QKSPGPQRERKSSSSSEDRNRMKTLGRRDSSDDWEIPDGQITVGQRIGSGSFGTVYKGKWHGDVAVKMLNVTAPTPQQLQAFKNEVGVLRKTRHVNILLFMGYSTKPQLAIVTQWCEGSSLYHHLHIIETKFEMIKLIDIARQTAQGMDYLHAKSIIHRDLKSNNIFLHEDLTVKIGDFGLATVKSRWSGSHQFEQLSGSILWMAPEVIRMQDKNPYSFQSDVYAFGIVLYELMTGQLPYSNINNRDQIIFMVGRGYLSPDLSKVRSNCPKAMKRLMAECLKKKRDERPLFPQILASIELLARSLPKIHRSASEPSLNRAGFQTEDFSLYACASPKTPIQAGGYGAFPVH
structure (smiles),measurement,setting,value
"CNS(=O)(=O)Nc1cccc(Cc2c(CC(=O)NOCCO)c3ccc(Oc4ncccn4)cc3oc2=O)c1F [AA-2, 2-[3-[[2-Fluoro-3-(methylsulfamoylamino)phenyl]methyl]-2-oxo-7-pyrimidin-2-yloxychromen-4-yl]-N-(2-hydroxyethoxy)acetamide]",IC50,BRAF; Table 1,2200 nM
same,IC50,MEK1; Table 1,> 8000 nM
same,IC50,HCT-116,45000 nM
"CNS(=O)(=O)Nc1nccc(Cc2cc(C(N)=O)c(Nc3ccc(I)cc3F)cn2)c1F [Compound L-1, 5-(2-Fluoro-4-iodoanilino)-2-[[3-fluoro-2-(methylsulfamoylamino)pyridin-4-yl]methyl]pyridine-4-carboxamide]",microsomal CLint at 0.99 µM,[1],10 µL/min/mg
same,IC50,BRAF; Table 3,2 nM
same,IC50,A549,21 nM
same,IC50,Calu-6,41 nM
same,IC50,NCI-H2122,17 nM
same,IC50,MEK1; Table 3,6 nM
"CNS(=O)(=O)NCC(=O)N(Cc1cc(C(=O)NOCCO)c(Nc2ccc(I)cc2F)c(F)c1F)OC [AA-1, 3,4-Difluoro-2-(2-fluoro-4-iodoanilino)-N-(2-hydroxyethoxy)-5-[[methoxy-[2-(methylsulfamoylamino)acetyl]amino]methyl]benzamide]",IC50,BRAF; Table 1,3 nM
same,IC50,MEK1; Table 1,21 nM
same,IC50,HCT-116,2 nM
same,IC50,Colo-205,0.4 nM
